Data: patent US4555518A, “Fluoroalkoxy substituted benzimidazoles useful as gastric acid secretion inhibitors” (Byk Gulden Lomberg Chemische Fabrik GmbH, priority 1983, dated 1985)

What was measured:
[1] = test system: gastric lesion formation (rat stomach); test: Shay rat: inhibition of gastric lesion formation induced by pyloric ligature and oral acetylsalicylic acid (protective effect on the stomach); type: in vivo; conditions: perorally, rats, 1 h before pyloric ligature, 4 h, 100 mg/kg acetylsalicylic acid, dose reducing lesion index by 50% vs control
Experimental: (§1) In these experiments, the compounds according to the invention were compared with prior art compounds (A-D) of European Patent Applications Nos. 0 005 129 and 0 074 341. The compounds investigated are numbered as follows: The influence of the compounds of the prior art and the compounds according to the invention on gastric lesion formation induced by pyloric ligature (4 h; so-called Shay rat) and oral administration of 100 mg/kg of acetylsalicyclic acid, and the gastric secretion (HCl) in the course of 4 h in rats is shown in the following table. | *ED25 and ED50 = dose which reduces the lesion index or the HCL | secretion(4h) in the rat stomach by 25 and, respectively, 50% in the | treated group in comparison with the control group. The antiulcerogenic action was tested by the so-called Shay rat method: Ulcers are caused in rats which have been fasted for 24 hours (female, 180-200 g, 4 animals per cage on a high grid) by pyloric ligature (under diethyl ether anesthesia) and oral administration of 100 mg/10 ml/kg of acetylsalicylic acid. The substances to be tested are administered orally (10 ml/kg) one hour before the pyloric ligature. The wound is closed by means of Michel clamps. 4 hours thereafter, the animals are sacrificed under ether anesthesia by Atlas dislocation and resection of the stomach. The stomach is opened longitudinally and attached to a cork plate, after the amount of gastric juice secreted (volume) and later its HCl content (titration with sodium hydroxide solution) have first been determined; the number and size (=diameter) of the ulcers present are determined under a stereomicroscope at 10-fold magnification. The product of the degree of severity (according to the following points scale) and number of ulcers serves as the individual lesion index. The reduction in the average lesion index of each treated group compared with the control group (=100%) serves as a measure of the antiulcerogenic effect.

[2] = test system: gastric secretion (HCl) (rat stomach); test: Shay rat: inhibition of gastric secretion (HCl) in the course of 4 h; type: in vivo; conditions: for ED25 / ED50: Rattus norvegicus, po, perorally, rats; for ED25: dose reducing HCl secretion (4 h) by 25% vs control; for ED50: dose reducing HCl secretion (4 h) by 50% vs control; for Gastric secretion (rats): % inhibition of HCl secretion: after administration of the antiulcerous ED50, perorally, 4 h
Experimental: as §1, with “group. | **after administration of the antiulcerous ED50.” for “group.”

Molecule `COc1ccnc(C[S+]([O-])c2nc3cc(OC(F)(F)C(F)F)ccc3[nH]2)c1` (stereo not drawn) [Serial No. 5, 2-[(4-methoxy-2-pyridyl)methylsulfinyl]-5-(1,1,2,2-tetrafluoroethoxy)-1H-benzimidazole] has an ED50 [1] of 0.7 mg/kg, an ED25 [2] of 0.5 mg/kg and an ED50 [2] of 1.2 mg/kg. The “Gastric secretion (rats): % inhibition of HCl secretion” value (“Gastric secretion (rats): % inhibition” below) [2] was 33%.
`COc1ccnc(CSc2nc3cc(OCC(F)(F)F)ccc3[nH]2)c1C` [Serial No. 11, 2-[(4-methoxy-3-methyl-2-pyridyl)methylthio]-5-(2,2,2-trifluoroethoxy)-1H-benzimidazole] gave an ED50 [1] of 0.5 mg/kg, an ED25 [2] of 0.5 mg/kg and an ED50 [2] of 0.7 mg/kg. For the same molecule, the “Gastric secretion (rats): % inhibition” value [2] was 25%.
`COc1ccc2[nH]c([S+]([O-])Cc3ncc(C)c(OC)c3C)nc2c1` (stereo not drawn) [Serial No. B, 5-methoxy-2-[(4-methoxy-3,5-dimethyl-2-pyridylmethyl)sulfinyl]-1H--benzimidazole, reference compound] gave an ED50 [1] of 2.2 mg/kg, an ED25 [2] of 1.9 mg/kg and an ED50 [2] of 4.6 mg/kg. The “Gastric secretion (rats): % inhibition” value [2] was 29%.
For `COc1ccnc(CSc2nc3cc(OC(F)F)c(OC(F)F)cc3[nH]2)c1C` [Serial No. 15, 5,6-bis(difluoromethoxy)-2-[(4-methoxy-3-methyl-2-pyridyl)methylthio]-1H-benzimidazole], the ED50 [1] was 0.6 mg/kg, the ED25 [2] was 0.5 mg/kg and the ED50 [2] was 1 mg/kg. The “Gastric secretion (rats): % inhibition” value [2] was 30%.
`COc1cc2[nH]c([S+]([O-])Cc3nccc(OC)c3C)nc2cc1OC(F)F` (stereo not drawn) [Serial No. 16, 5-difluoromethoxy-6-methoxy-2-[(4-methoxy-3-methyl-2-pyridyl)methylsulfinyl]-1H-benzimidazole] was tested, and the ED50 [1] was 0.2 mg/kg and the ED50 [2] was roughly 0.8 mg/kg.
In the case of `COc1ccnc(C[S+]([O-])c2nc3cc(OCC(F)(F)F)ccc3[nH]2)c1C` (stereo not drawn) [Serial No. 10, 2-[(4-methoxy-3-methyl-2-pyridyl)methylsulfinyl]-5-(2,2,2-trifluoroethoxy)-1H-benzimidazole], the ED50 [1] is reported as 0.5 mg/kg, the ED25 [2] is reported as 0.5 mg/kg and the ED50 [2] is reported as 0.7 mg/kg. The “Gastric secretion (rats): % inhibition” value [2] was 25%.
Molecule `COc1cc2[nH]c(SCc3nccc(OC)c3C)nc2cc1OC(F)F` [Serial No. 17, 5-difluoromethoxy-6-methoxy-2-[(4-methoxy-3-methyl-2-pyridyl)methylthio]-1H-benzimidazole] has an ED50 [1] of roughly 0.3 mg/kg, an ED25 [2] of roughly 0.3 mg/kg and an ED50 [2] of roughly 0.8 mg/kg. For the same molecule, the “Gastric secretion (rats): % inhibition” value [2] was ~ 25%.
`COc1ccc2[nH]c([S+]([O-])Cc3cc(OC)c(C)cn3)nc2c1` (stereo not drawn) [Serial No. D, 5-methoxy-2-[(4-methoxy-5-methyl-2-pyridylmethyl)sulfinyl]-1H--benzimidazole, reference compound] gave an ED50 [1] of roughly 5 mg/kg, an ED25 [2] of 8 mg/kg and an ED50 [2] of 18 mg/kg. For the same molecule, the “Gastric secretion (rats): % inhibition” value [2] was 10%.
With `COc1ccc2[nH]c(SCc3cc(OC)c(C)cn3)nc2c1` [Serial No. C, 5-methoxy-2-[(4-methoxy-5-methyl-2-pyridylmethyl)thio]-1H--benzimidazole, reference compound] the ED50 [1] was roughly 30 mg/kg and the ED25 [2] was greater than 60.6 mg/kg.
In the case of `COc1ccnc(C[S+]([O-])c2nc3cc(OC(F)F)c(OC(F)F)cc3[nH]2)c1` (stereo not drawn) [Serial No. 13, 5,6-bis(difluoromethoxy)-2-[(4-methoxy-2-pyridyl)methylsulfinyl]-1H-benzimidazole], the ED50 [1] is reported as roughly 1.2 mg/kg, the ED25 [2] is reported as roughly 1.1 mg/kg and the ED50 [2] is reported as roughly 1.7 mg/kg. The “Gastric secretion (rats): % inhibition” value [2] was ~ 30%.
`COc1c(C)cnc(C[S+]([O-])c2nc3cc(OC(F)(F)F)ccc3[nH]2)c1C` (stereo not drawn) [Serial No. 8, 2-[(4-methoxy-3,5-dimethyl-2-pyridyl)methylsulfinyl]-5-trifluoromethoxy-1H-benzimidazole] gave an ED50 [1] of 0.4 mg/kg, an ED25 [2] of 1 mg/kg and an ED50 [2] of 1.5 mg/kg. For the same molecule, the “Gastric secretion (rats): % inhibition” value [2] was 20%.
`COc1cc(C[S+]([O-])c2nc3cc(OC(F)(F)F)ccc3[nH]2)ncc1C` (stereo not drawn) [Serial No. 4, 2-[(4-methoxy-5-methyl-2-pyridyl)methylsulfinyl]-5-trifluoromethoxy-1H-benzimidazole] gave an ED50 [1] of 0.9 mg/kg, an ED25 [2] of 0.6 mg/kg and an ED50 [2] of 1.6 mg/kg. For the same molecule, the “Gastric secretion (rats): % inhibition” value [2] was 32%.
`COc1ccnc(C[S+]([O-])c2nc3cc(OC(F)(F)F)ccc3[nH]2)c1` (stereo not drawn) [Serial No. 1, 2-[(4-methoxy-2-pyridyl)methylsulfinyl]-5-trifluoromethoxy-1H-benzimidazole] was tested, and the ED50 [1] was 0.6 mg/kg, the ED25 [2] was 0.5 mg/kg and the ED50 [2] was 1.1 mg/kg. The “Gastric secretion (rats): % inhibition” value [2] was 32%.
In the case of `COc1ccnc(C[S+]([O-])c2nc3cc(OC(F)(F)C(F)F)ccc3[nH]2)c1C` (stereo not drawn) [Serial No. 6, 2-[(4-methoxy-3-methyl-2-pyridyl)methylsulfinyl]-5-(1,1,2,2-tetrafluoroethoxy)-1H-benzimidazole], the ED50 [1] is reported as 0.5 mg/kg, the ED25 [2] is reported as 0.3 mg/kg and the ED50 [2] is reported as 0.7 mg/kg. For the same molecule, the “Gastric secretion (rats): % inhibition” value [2] was 35%.
For `COc1ccnc(CSc2nc3cc(OC(F)(F)F)ccc3[nH]2)c1C` [Serial No. 2, 2-[(4-methoxy-3-methyl-2-pyridyl)methylthio]-5-trifluoromethoxy-1H-benzimidazole], the ED50 [1] was 0.3 mg/kg, the ED25 [2] was 0.35 mg/kg and the ED50 [2] was 0.5 mg/kg. The “Gastric secretion (rats): % inhibition” value [2] was 20%.
`COc1ccnc(CSc2nc3cc(OC(F)(F)C(F)F)ccc3[nH]2)c1C` [Serial No. 7, 2-[(4-methoxy-3-methyl-2-pyridyl)methylthio]-5-(1,1,2,2-tetrafluoroethoxy)-1H-benzimidazole] showed an ED50 [1] of 0.5 mg/kg, an ED25 [2] of 0.35 mg/kg and an ED50 [2] of 0.7 mg/kg. The “Gastric secretion (rats): % inhibition” value [2] was 40%.
`COc1c(C)cnc(CSc2nc3cc(OC(F)(F)F)ccc3[nH]2)c1C` [Serial No. 9, 2-[(4-methoxy-3,5-dimethyl-2-pyridyl)methylthio]-5-trifluoromethoxy-1H-benzimidazole] gave an ED50 [1] of 1 mg/kg, an ED25 [2] of 1.4 mg/kg and an ED50 [2] of 2 mg/kg. For the same molecule, the “Gastric secretion (rats): % inhibition” value [2] was 10%.
`COc1ccc2[nH]c(SCc3ncc(C)c(OC)c3C)nc2c1` [Serial No. A, 5-methoxy-2-[(4-methoxy-3,5-dimethyl-2-pyridylmethyl)thio]-1H--benzimidazole, reference compound] was tested, and the ED50 [1] was 9 mg/kg, the ED25 [2] was 12 mg/kg and the ED50 [2] was 25 mg/kg. For the same molecule, the “Gastric secretion (rats): % inhibition” value [2] was 20%.
With `COc1ccnc(C[S+]([O-])c2nc3cc(OC(F)(F)Cl)ccc3[nH]2)c1` (stereo not drawn) [Serial No. 18, 5-chlorodifluoromethoxy-2-[(4-methoxy-2-pyridyl)methylsulfinyl]-1H-benzimidazole] the ED50 [1] was 1.3 mg/kg, the ED25 [2] was less than 1 mg/kg and the ED50 [2] was 1.8 mg/kg. For the same molecule, the “Gastric secretion (rats): % inhibition” value [2] was 35%.
With `COc1ccnc(C[S+]([O-])c2nc3cc(OC(F)F)c(OC(F)F)cc3[nH]2)c1C` (stereo not drawn) [Serial No. 14, 5,6-bis(difluoromethoxy)-2-[(4-methoxy-3-methyl-2-pyridyl)methylsulfinyl]-1H-benzimidazole] the ED50 [1] was 0.2 mg/kg, the ED25 [2] was roughly 0.3 mg/kg and the ED50 [2] was 0.6 mg/kg. The “Gastric secretion (rats): % inhibition” value [2] was 20%.
With `COc1ccnc(C[S+]([O-])c2nc3cc(OC(F)(F)F)ccc3[nH]2)c1C` (stereo not drawn) [Serial No. 3, 2-[(4-methoxy-3-methyl-2-pyridyl)methylsulfinyl]-5-trifluoromethoxy-1H-benzimidazole] the ED50 [1] was 0.3 mg/kg, the ED25 [2] was less than 0.3 mg/kg and the ED50 [2] was 0.4 mg/kg. For the same molecule, the “Gastric secretion (rats): % inhibition” value [2] was 32%.
`COc1ccnc(C[S+]([O-])c2nc3cc(OC(F)F)ccc3[nH]2)c1C` (stereo not drawn) [Serial No. 12, 5-difluoromethoxy-2-[(4-methoxy-3-methyl-2-pyridyl)methylsulfinyl]-1H-benzimidazole] showed an ED50 [1] of roughly 0.3 mg/kg, an ED25 [2] of roughly 0.3 mg/kg and an ED50 [2] of roughly 0.6 mg/kg. For the same molecule, the “Gastric secretion (rats): % inhibition” value [2] was ~ 20%.
